What was measured:
[1] = molecular target: T1, human cannabis CB1 receptor (Homo sapiens, UniProt P21554); experiment: Affinity for cannabinoid CB1 receptor, [3H]-CP-55,940 radioligand binding on HEK cell membranes; conditions: affinity for the CB1 receptor
T1 construct: expressed in transfected cells; host or cells: human embryonic kidney (HEK) cells, Semliki Forest Virus system, membrane preparation
Description: The affinity of the compounds of the invention for cannabinoid CB1 receptors was determined using membrane preparations of human embryonic kidney (HEK) cells in which the human cannabis CB1 receptor is transiently transfected using the Semliki Forest Virus system in conjunction with [3H]-CP-55,940 as radioligand. After incubation of a freshly prepared cell membrane preparation with the [3H]-ligand, with or without addition of compounds of the invention, separation of bound and free ligand was performed by filtration over glassfiber filters. Radioactivity on the filter was measured by liquid scintillation counting.

[2] = doses of 5, 10 and 20 mg daily; cited from earlier work

T1 sequence (P21554 whole entry): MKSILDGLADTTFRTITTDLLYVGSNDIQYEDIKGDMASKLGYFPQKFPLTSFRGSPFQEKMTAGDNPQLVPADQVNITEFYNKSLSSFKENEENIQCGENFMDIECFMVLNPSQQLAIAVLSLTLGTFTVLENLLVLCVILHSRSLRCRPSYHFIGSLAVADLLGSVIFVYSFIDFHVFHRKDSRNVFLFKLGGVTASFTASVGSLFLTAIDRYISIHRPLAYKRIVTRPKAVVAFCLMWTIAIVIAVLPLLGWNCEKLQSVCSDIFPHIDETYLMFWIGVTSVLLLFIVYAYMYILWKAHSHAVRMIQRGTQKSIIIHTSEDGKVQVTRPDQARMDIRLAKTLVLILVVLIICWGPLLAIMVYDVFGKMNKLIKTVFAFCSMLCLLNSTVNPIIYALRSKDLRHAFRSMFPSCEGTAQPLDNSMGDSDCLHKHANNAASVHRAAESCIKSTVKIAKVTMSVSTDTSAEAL

SMILES | IC50 [1] [nM] | body weight compared to placebo [2]
O=C(c1cc2c(cc1F)OC1(O2)c2ccc(Cl)cc2CCc2cc(Cl)ccc21)N1CCOCC1 [Example 1, 4-[(2′,8′-dichloro-6-fluoro-10′,11′-dihydrospiro[1,3-benzodioxole-2,5′-[5H]dibenzo[a,d]cyclohepten]-5-yl)carbonyl]-morpholine] | 13 | –
O=C(c1ccc2c(c1)OC1(O2)c2ccc(Cl)cc2CCc2cc(Cl)ccc21)C1CCNCC1 [Example 2, 4-[(2′,8′-dichloro-10′,11′-dihydrospiro[1,3-benzodioxole-2,5′-[5H]dibenzo[a,d]cyclohepten]-5-yl)carbonyl]-piperidine] | 18 | –
Cc1c(C(=O)NN2CCCCC2)nn(-c2ccc(Cl)cc2Cl)c1-c1ccc(Cl)cc1 [SR 141716] | – | significantly reduced body weight
